Measured values reported in patent publication US20120183614A1, “POLYPHENOL COMPOUND ABSORPTION PROMOTER AND UTILIZATION OF SAME” (priority 2009, published 2012).

Experiments:
[1] = Stability of EGCG in the chorionic side HBSS solution; format: physicochemical; settings: chorionic side HBSS solution with 1 mM ascorbic acid, pH 5.5
Procedure: In addition, the EGCG absorption capacity of the Caco-2 cells was maintained constantly for 4 hours or more by adding 10 mM glutamine to the HBSS solutions of the chorionic side and serosal side in the measurement system.

[2] = test system: Caco-2 cells; test: In vitro EGCG absorption measurement system, Caco-2 cell monolayer on Transwell (Papp of EGCG, chorionic to serosal side)
Procedure: An orally-ingested polyphenol compound, in particular, catechin compound is considered to be absorbed mainly in the intestinal tract, especially the small intestine in the body. […]
The Caco-2 cells were cultured in the presence of humidified air containing 5% CO2 in a Dulbecco's modified Eagle medium (DMEM, pH 7.4; manufactured by GIBCO) containing 10% inactivated fetal bovine serum (manufactured by HyClone), 50 U/mL penicillin-50 μg/mL streptomycin (manufactured by GIBCO), and a 1% non-essential amino acid (manufactured by GIBCO) in a plastic flask of 75 cm^2. The cells were maintained by performing subculture every 5 to 8 days when the cells reached 80 to 90% confluence. An EGCG absorption experiment to be described below was performed using Caco-2 cells which had been subcultured 30 to 70 times.
The EGCG absorption experiment was performed using a Caco-2 cell monolayer cultured on a Transwell with a diameter of 12 mm (polycarbonate filter culture area: 1.13 cm^2, pore size: 0.4 μm; manufactured by Corning). […] Transepithelial electrical resistance (hereinafter, referred to as “TEER”) was measured using a Millicell ERS meter (manufactured by Millipore) to monitor the degree of completion of a tight junction of the cell monolayer, and a monolayer which had been confirmed that formation of the tight junction had been completed was used in the experiment. […]

[3] = EGCG absorbability in rats, Camellia sinensis (L.) O. Kuntze extracts versus green tea extracts (Test Example 7); format: in vivo; settings: rat plasma
Source text: For Camellia sinensis (L.) O. Kuntze extracts (Camellia sinensis (L.) O. Kuntze tea hot water extract manufactured by ASAHI SOFT DRINKS CO., Ltd.; lot 1 [i], lot 2 [ii], and lot 3 [iii]) and green tea extracts (green tea hot water extract manufactured by San-Ei Gen F.F.I., Inc.; lot 4 [iv] and lot 5 [v]), absorbability of EGCG by rats were compared. […] During the recuperation period, the rats were fed individually in cages equipped with floor nets and allowed to ingest CE-2 feed (manufactured by CLEA Japan, Inc.) freely. The numbers of samples of the administration solutions are as follows: [i] Camellia sinensis (L.) O. Kuntze extract lot 1-administered group: n=7; [ii] Camellia sinensis (L.) O. Kuntze extract lot 2-administered group: n=7; [iii] Camellia sinensis (L.) O. Kuntze extract lot 3-administered group: n=6; [iv] green tea extract lot 4-administered group:n=5; and [v] green tea extract lot 5-administered group: n=4. […] The EGCG concentration in plasma was measured in the same manner as in Test Example 4. […] Isocratic elution was performed at a sample injection volume to the column of 20 μL using 0.1% phosphoric acid containing 0.1 mM EDTA·2Na:acetonitrile=90:10 as the mobile phase at a flow rate of 0.4 mL/min. […] The EGCG concentrations in actual administration solutions were also analyzed again, and it was confirmed that EGCG was administered to the rats in scheduled amounts. […]

[4] = EGCG absorbability in rats, mixed administration solutions (Test Example 8); format: in vivo; settings: oral, 1 mM EGCG, Fisher's PLSD
Source text: The reason why the significant differences are found in EGCG absorbability between the Camellia sinensis (L.) O. Kuntze extracts and the usual green tea extracts although both are extracts obtained by the same hot-water extraction procedures is probably that substances contained in the extracts differ from each other. That is, the green tea extracts may contain an ingredient which inhibits EGCG absorption, or the Camellia sinensis (L.) O. Kuntze extracts may contain an ingredient which promotes EGCG absorption. In order to gain the chance of investigation of the possibility, an experiment shown in this test example was performed. Specifically, a Camellia sinensis (L.) O. Kuntze extract solution, a usual green tea extract solution, and an EGCG reagent solution were prepared so as to have the same EGCG concentration, and solutions obtained by mixing the solutions in appropriate combination were administered to rats to investigate changes in EGCG absorbability. […] In the same manner as in Test Example 7, the administration solutions were orally administered forcibly to rats mounted with a cannula in the vein, and EGCG concentrations in plasma obtained by blood collection performed with time after administration were measured and converted into areas under curve to compare amounts of EGCG remaining in blood. […]

[5] = EGCG in rat plasma after oral administration of green tea extract solution with serine and malic acid (Test Example 4); format: in vivo, rats; settings: rat plasma after administration solutions (i) to (iv)
Procedure: The final EGCG concentration derived from the green tea extract contained in each administration solution was adjusted to 1 mM. […] During the recuperation period, the rats were fed individually in cages equipped with floor nets and allowed to ingest CE-2 feed (manufactured by CLEA Japan, Inc.) freely. […] The EGCG concentration in plasma was measured as follows: […] Isocratic elution was performed at a sample injection volume to the column of 20 μL using 0.1% phosphoric acid containing 0.1 mM EDTA·2Na:acetonitrile=90:10 as the mobile phase at a flow rate of 0.4 mL/min. […] The retention time of the EGCG standard substance was 8.0 minutes, and the detection sensitivity was 2 nM. The EGCG concentrations in actual administration solutions were also analyzed again, and it was confirmed that EGCG was administered to the rats in scheduled amounts. Rat plasma collected after administration of each of the administration solutions (i), (ii), (iii), and (iv) was treated and subjected to HPLC analysis as mentioned above. […] In other words, it was considered that most of EGCG in blood was absorbed in blood as an unconjugated free body.

[6] = test system: Caco-2 cell monolayer; test: Transepithelial electrical resistance (TEER) of the Caco-2 cell monolayer; format: cell-based, human; settings: EGCG reagent added at different concentrations to the chorionic side, 3-hour measurement period
Procedure: The EGCG absorption experiment was performed using a Caco-2 cell monolayer cultured on a Transwell with a diameter of 12 mm (polycarbonate filter culture area: 1.13 cm^2, pore size: 0.4 μm; manufactured by Corning). The Caco-2 cells were inoculated onto an insert of the Transwell at a density of 1.0×10^5 cells/cm^2, and culture was continued while the medium was exchanged for a fresh one every 2 days. Transepithelial electrical resistance (hereinafter, referred to as “TEER”) was measured using a Millicell ERS meter (manufactured by Millipore) to monitor the degree of completion of a tight junction of the cell monolayer, and a monolayer which had been confirmed that formation of the tight junction had been completed was used in the experiment. […]
The medium of the upper part of the Transwell insert on which the Caco-2 cell monolayer was placed (chorionic side) was replaced by a Hanks' Balanced Salt Solution-like Transport Medium having a pH of 5.5 (chorionic side HBSS solution; containing 10 mM MES, 5 mM glucose, 10 mM glutamine, and 1 mM ascorbic acid), and the medium of the lower part of the insert (serosal side) was replaced by HBSS having a pH of 7.4 (serosal side HBSS solution; containing […], 5 mM glucose, 10 mM glutamine, and 1 mM ascorbic acid). […] The cells were incubated for 30 minutes, and TEER was measured again. […]

[7] = Catechin compounds in human plasma after Camellia sinensis (L.) O. Kuntze extract with sodium malate (Test Example 9); format: in vivo; settings: humans, 135 mg with Camellia sinensis (L.) O. Kuntze extract (195 mg catechin compounds), oral; total of five catechin compounds
Procedure: The effect of malic acid on absorption of a catechin compound in humans was examined. Five healthy men and women which were 20 years old or more and less than 65 years old were selected as test subjects, and a test was performed on the effect of increasing the amount of the catechin compound remaining in blood by ingesting sodium malate simultaneously with the Camellia sinensis (L.) O. Kuntze extract. […]
The test was performed by a crossover test as described below. […] In the same manner as in Test Example 4, concentrations of the catechin compounds in plasma were measured by the HPLC-ECD method (electrochemical detection method). […] As the second phase, concentrations of the catechin compounds in plasma were measured under the same conditions as those in the first phase except that each subject ingested the control substance. It should be noted that the concentrations of the catechin compounds were determined as a total concentration of five kinds of catechin compounds including EGCG, 3″-O-methylepigallocatechin gallate, epigallocatechin, epicatechin gallate, and epicatechin.

SMILES | Stability of EGCG during the absorption experiment period [1] | EGCG absorbed in the form of a conjugate (deconjugation treatment of EGCG permeated to the serosal side) [2] | Change in EGCG concentrations in plasma before and after the deconjugation treatment with β-glucuronidase and sulfatase [3] | Difference in mean values, EGCG concentrations in plasma × time (areas under curve) ([4]; labelled solution vs [ii] EGCG reagent + green tea extract) | Difference in mean values, EGCG concentrations in plasma × time (areas under curve) ([4]; labelled solution vs [iii] Camellia sinensis (L.) O. Kuntze extract + green tea extract) | Change in EGCG concentration in plasma before and after deconjugation treatments with β-glucuronidase and sulfatase [5] | TEER during the measurement period [6] | AUC0→4h of total catechins in plasma relative to ingestion of no sodium malate [7]
O=C(O[C@@H]1Cc2c(O)cc(O)cc2O[C@@H]1c1cc(O)c(O)c(O)c1)c1cc(O)c(O)c(O)c1 [EGCG, epigallocatechin gallate] | maintained completely and stably | no EGCG absorbed in the form of a conjugate | not changed | 0.0052 | 0.0009 | no changes | maintained well | –
O=C([O-])CC(O)C(=O)[O-].[Na+].[Na+] (centres unmarked) [sodium malate] | – | – | – | – | – | – | – | 1.6 times
